From ChEMBL document CHEMBL1148684, “Benzimidazole-2-carboxamides as novel NR2B selective NMDA receptor antagonists” (Bioorg Med Chem Lett, 2006)

What was measured:
[1] = target: Glutamate receptor ionotropic, NMDA 2B (Rattus norvegicus, UniProt Q00960); experiment: Displacement of [3H]Ro25-6981 from NR2B NMDA receptor in rat forebrain membrane; assay type: cell membranes
Glutamate NMDA receptor = experiment: Inhibition of NMDA-evoked increase in intracellular calcium ion in rat cortical cells; assay type: functional, cell-based
[2] = target: Glutamate NMDA receptor; GRIN1/GRIN2A (Homo sapiens) (UniProt Q05586+Q12879); experiment: Inhibition of NMDA-evoked current in EcR293 cells transfected with NR1/NR2A upto 10 uM by patch clamp method; assay type: functional, cell-based; conditions: HEK293
[3] = Inhibition of NMDA-evoked current in EcR293 cells transfected with NR1/NR2D upto 10 uM by patch clamp method; assay type: functional, HEK293
Mus musculus = experiment: Analgesic activity against formalin-induced persistent pain in orally dosed NMRI mouse assessed as decrease in licking time relative to control; assay type: functional; conditions: po

Sequence of Glutamate receptor ionotropic, NMDA 2B (Q00960 whole entry): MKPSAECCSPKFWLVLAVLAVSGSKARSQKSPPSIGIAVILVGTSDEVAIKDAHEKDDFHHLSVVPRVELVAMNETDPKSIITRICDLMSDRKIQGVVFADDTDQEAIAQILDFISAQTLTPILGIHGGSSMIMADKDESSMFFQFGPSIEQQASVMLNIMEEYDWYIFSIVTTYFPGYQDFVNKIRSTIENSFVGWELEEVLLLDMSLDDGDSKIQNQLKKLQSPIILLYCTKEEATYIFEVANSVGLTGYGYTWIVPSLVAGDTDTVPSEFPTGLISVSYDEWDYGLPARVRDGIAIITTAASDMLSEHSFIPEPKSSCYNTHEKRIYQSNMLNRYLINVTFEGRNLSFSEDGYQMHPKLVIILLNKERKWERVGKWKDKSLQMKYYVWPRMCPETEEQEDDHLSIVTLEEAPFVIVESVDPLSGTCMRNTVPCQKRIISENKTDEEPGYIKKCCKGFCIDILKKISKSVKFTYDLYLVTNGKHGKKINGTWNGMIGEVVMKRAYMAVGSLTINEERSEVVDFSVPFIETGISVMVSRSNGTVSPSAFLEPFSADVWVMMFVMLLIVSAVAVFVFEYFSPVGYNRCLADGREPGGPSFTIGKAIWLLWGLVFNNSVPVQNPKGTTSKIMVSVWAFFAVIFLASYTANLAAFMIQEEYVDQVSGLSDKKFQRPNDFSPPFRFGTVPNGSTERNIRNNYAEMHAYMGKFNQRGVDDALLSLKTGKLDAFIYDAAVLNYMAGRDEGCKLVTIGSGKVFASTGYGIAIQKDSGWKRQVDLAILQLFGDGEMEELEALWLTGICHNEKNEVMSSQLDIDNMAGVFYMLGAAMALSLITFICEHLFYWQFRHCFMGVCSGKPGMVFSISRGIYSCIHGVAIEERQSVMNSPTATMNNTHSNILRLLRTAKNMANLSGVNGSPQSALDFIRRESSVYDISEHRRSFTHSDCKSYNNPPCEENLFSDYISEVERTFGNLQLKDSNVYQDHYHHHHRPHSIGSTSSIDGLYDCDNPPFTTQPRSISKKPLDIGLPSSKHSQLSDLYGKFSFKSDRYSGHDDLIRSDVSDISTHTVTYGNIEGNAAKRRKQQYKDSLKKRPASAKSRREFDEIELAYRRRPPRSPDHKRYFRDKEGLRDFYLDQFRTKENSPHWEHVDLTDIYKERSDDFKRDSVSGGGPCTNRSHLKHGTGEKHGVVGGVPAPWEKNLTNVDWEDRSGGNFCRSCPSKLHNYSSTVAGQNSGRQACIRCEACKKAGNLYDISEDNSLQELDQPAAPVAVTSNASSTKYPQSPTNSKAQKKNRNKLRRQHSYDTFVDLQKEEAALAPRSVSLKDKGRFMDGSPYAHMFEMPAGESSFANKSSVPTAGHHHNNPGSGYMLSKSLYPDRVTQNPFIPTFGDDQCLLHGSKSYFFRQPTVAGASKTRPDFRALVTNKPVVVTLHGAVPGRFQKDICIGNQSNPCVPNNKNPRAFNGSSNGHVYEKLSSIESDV

SMILES | IC50 [1] [nM] | IC50 (Glutamate NMDA receptor) [nM] | inhibition [2] [%] | Inhibition [3] [%] | ED50 (Mus musculus) [mg/kg]
Nc1ccc2[nH]c(C(=O)N3CCC(Cc4ccccc4)CC3)nc2c1 | 143 | 40 | – | – | –
O=C(c1nc2ccc(O)cc2[nH]1)N1CCC(Oc2ccc(F)cc2)CC1 | 6 | 2.9 | – | – | –
CS(=O)(=O)Nc1ccc2nc(CN3CCC(Cc4ccccc4)CC3)[nH]c2c1 | 3.5 | 8.6 | – | – | –
C[C@@H](CN1CCC(Cc2ccccc2)CC1)[C@@H](O)c1ccc(O)cc1 | 6 | 159 | – | – | –
CS(=O)(=O)Nc1ccc2[nH]c(C(=O)N3CCC(Cc4ccccc4)CC3)nc2c1 | 3 | 1.3 | – | – | –
O=C(c1nc2ccc(O)cc2[nH]1)N1CCC(Oc2ccc(Cl)cc2)CC1 | 14 | 1.7 | – | – | –
O=c1[nH]c2ccc([S+]([O-])CCN3CCC(Cc4ccc(F)cc4)CC3)cc2o1 (centres undefined) [BESONPRODIL] | 4 | 6.6 | – | – | –
O=C(c1nc2c(O)cccc2[nH]1)N1CCC(Cc2ccccc2)CC1 | 10 | 3 | – | – | –
Cc1ccc(OC2CCN(C(=O)c3nc4ccc(O)cc4[nH]3)CC2)cc1 | 3 | 1.1 | – | – | –

Second part, led by results:

IC50 [1] [nM] | IC50 (Glutamate NMDA receptor) [nM] | inhibition [2] [%] | SMILES | Inhibition [3] [%] | ED50 (Mus musculus) [mg/kg]
4.4 | 8.7 | – | Cc1ccc(CC2CCN(C(=O)c3nc4ccc(O)cc4[nH]3)CC2)cc1 | – | –
3.2 | 2.5 | – | COc1cccc(CC2CCN(C(=O)c3nc4ccc(O)cc4[nH]3)CC2)c1 | – | –
4 | – | < 20 | O=C(c1nc2ccc(O)cc2[nH]1)N1CCC(Cc2ccccc2)CC1 | <20 | 1.6
5.2 | 6 | – | O=C(c1nc2ccc(O)cc2[nH]1)N1CCC(Cc2cccc(F)c2)CC1 | – | –
5 | 2.4 | – | Cc1cccc(CC2CCN(C(=O)c3nc4ccc(O)cc4[nH]3)CC2)c1 | – | –
8.4 | 12 | – | Cc1ccccc1CC1CCN(C(=O)c2nc3cc(O)ccc3[nH]2)CC1 | – | –
4 | 1.2 | – | O=C(c1nc2ccc(O)cc2[nH]1)N1CCC(Cc2ccc(F)cc2)CC1 | – | –
